Here are results for one compound from patent US20130150346A1, “Use of FAAH Inhibitors for Treating Parkinson's Disease and Restless Legs Syndrome” (Ironwood Pharmaceutical, Inc., priority 2010, published 2013).

This assay concerns FAAH. Put plainly: Plasma FAAH substrate levels (AEA, OEA, PEA) by LC-MS/MS in MPTP-lesioned marmosets treated with URB597. The format is in vivo, common marmosets (Callithrix jacchus). The protocol:
Six common marmosets (Callithrix jacchus; female; weight, 350-500 g (Harlan, Madison, Wis., USA)) were kept under conditions of controlled temperature (25±2° C.) and a 12-hour light/dark cycle (lights on 6:30 a.m.). Animals were group housed and had access to food, fresh-fruit supplements and water ad libitum and their home cage environment was enriched with primate toys, perches and auditory stimuli. Prior to start of studies, animals were acclimatized to handling, blood collection and administration of treatments (oral syringe feeding and subcutaneous injection) as well as transfer to observation cages for assessment of behavior. A parkinsonian syndrome was induced by once-daily subcutaneous administration of MPTP hydrochloride (Sigma, Canada; 2 mg/kg base concentration in 0.9% saline) for 5 consecutive days. Following this, animals were allowed to recover for 12 weeks to allow parkinsonian symptoms to develop and stabilize. […] Treatment-related complications including dyskinesia and psychosis-like behaviors were evoked by twice-daily treatment with L-DOPA p.o. (as Prolopa®, Roche Canada, Ontario, equivalent to 15 mg/kg L-DOPA and 3.5 mg/kg benserazide) for a minimum of 30 days. […] Disord. 21:839-846; Visanji et al. (2008) Mov. Disord. 23:1922-1925; Visanji et al (2009) Neurobiol Dis. 35: 184-192]. After this time, the animals were used in several studies to evaluate potential anti-parkinsonian and anti-dyskinetic agents. A minimum period of two weeks was allowed between completing any prior study and commencing this study, a period in excess of ten half-lives since administration of any previously employed experimental drug. Throughout the course of the study, on days not requiring plasma sampling or behavioral observations, animals were treated once daily with oral L-DOPA therapy, given at 10:00 a.m. to maintain stable levels of complications. Marmosets treated with MPTP as described in this example are referred to as MPTP-lesioned marmosets.
MPTP hydrochloride (Sigma, Canada) was dissolved in 0.9% NaCl sterile solution to a concentration of 0.2 mg/ml (freebase) and administered at 1 ml/kg. Maintenance L-DOPA, administered as Prolopa® capsules (Roche, Mississauga, ON, Canada) containing 50 mg L-DOPA and 12.5 mg benserazide (freebase) was dissolved in Gatorade sports beverage (The Gatorade Company, Chicago, Ill.) prior to oral administration by syringe at a volume of 10 ml/kg. On days of behavioral assessment, L-DOPA (20 mg/kg, freebase) was prepared from the methyl ester form (Sigma, Canada) in combination with benserazide hydrochloride (5 mg/kg, freebase, Sigma, Canada) dissolved in 0.9% sterile saline containing 0.1% ascorbate (Sigma, Canada) and 0.05% absolute ethanol. URB597 (Cayman Chemical, Ann Arbor, Mich.) was formulated in a vehicle containing 50% corn oil (Professional Compounding Centers of America (PCCA), Houston, Tex.) and 50% nutritional drink Ensure™ (Abbott Nutrition, Chicago, Ill.) to make the suspension palatable for marmoset oral dosing. Requisite amounts of URB597 were weighed into sterile 50 ml polypropylene tubes (for the 3, 10, 30 and 60 mg/kg doses, 12, 40, 120 and 240 mg were weighed respectively). Then, 10 ml Corn oil was added and mixed until homogenous. Next, 10 ml Ensure™ was added and the mixture mixed gently at first, vortexed and finally sonicated (Ultrasonic Dismembrator, Fisher Scientific model 100, ⅛″) on a medium setting for 30 sec to ensure homogeneity of the suspension. URB597 or vehicle was dosed orally at a volume of 5 ml/kg body weight.
The effect of oral treatment of MPTP-lesioned marmosets with either vehicle or URB597 (3, 10, 30 or 60 mg/kg) on plasma levels of specific endogenous FAAH substrates was assessed. Levels of the endocannabinoid AEA, in addition to the non-cannabinoid fatty acid amides N-palmitoyl-ethanolamide (PEA) and N-oleoyl-ethanolamide (OEA), were measured by LC-MS/MS assays (described below).

The mark [1] stands for this setting: URB597 10 mg/kg p.o. (two doses), four hours after oral administration, mean±SEM, n=6.
[2] abbreviates: mean of the 4 doses studied (3, 10, 30, 60 mg/kg p.o.) ±SEM.

Take `NC(=O)c1cccc(-c2cccc(OC(=O)NC3CCCCC3)c2)c1` [URB597]: under setting [1], the “mean plasma level of AEA” value worked out at 5.0 ± 0.45 ng/mL, the “mean plasma level of OEA” value amounted to 7.7 ± 0.78 ng/mL and the “mean plasma level of PEA” value came to 7.0 ± 0.27 ng/mL. Moreover, the “FAAH inhibition suggested by fatty acid amide elevations (no dose response)” value (all four doses 3 mg/kg to 60 mg/kg p.o.) is reported as “complete inhibition of FAAH at all dose levels studied”. Under setting [2], the “mean fold change of plasma AEA compared to vehicle treatment” value came to 10.3±0.3 fold, the “mean fold change of plasma OEA compared to vehicle treatment” value amounted to 7.8±0.2 fold and the “mean fold change of plasma PEA compared to vehicle treatment” value was 1.8±0.1 fold.
